Data set [1] deals with Hepatitis C virus. The data set can be described thus: microbe, parasite or virus in culture. Type of data set: functional, organism-based, Hepacivirus hominis, genotype 1b, Huh-luc/neo-ET. The settings on record: Hepatitis C virus, genotype 1b, Huh-luc/neo-ET, 72 h.
Description: Antiviral activity against HCV-1b infected human Huh-luc/neo-ET replicon cells after 72 hrs by luciferase based replicon assay
Data set [2] in a line: in vitro. Conditions: human, t1/2.
The nature of data set [3]: in vitro. Conditions: human, liver microsomes. A general note: Liver microsomes are a subcellular fraction often used to study metabolism.
Description: Metabolic stability in human liver microsomes assessed as compound remaining after 60 mins at 1 uM

As a reminder, the EC50 is the concentration giving half of the maximal effect. A higher EC50 goes with a need for much substance. In data set [1], `CS(=O)(=O)Nc1ccc2c(c1)S(=O)(=O)N=C(C1=C(O)[C@@H]3C4CCC(CC4)[C@@H]3N(Cc3cc(F)ccc3F)C1=O)N2` yielded an EC50 of 220 nM. Still for that read-out and setting: then `CS(=O)(=O)Nc1ccc2c(c1)S(=O)(=O)N=C(C1=C(O)[C@@H]3[C@@H]4CC[C@@H](C4)[C@@H]3N(Cc3ccco3)C1=O)N2`, with 170 nM; and `CS(=O)(=O)Nc1ccc2c(c1)S(=O)(=O)N=C(C1=C(O)[C@@H]3[C@@H]4CC[C@@H](C4)[C@@H]3N(Cc3cc(Cl)ccc3F)C1=O)N2`, with 300 nM.

One may read the half-life as how long it takes for the measured level to halve. One may read the fraction remaining as the share of the starting amount still present when the sample was taken. A high value points to greater stability. With `CS(=O)(=O)Nc1ccc2c(c1)S(=O)(=O)N=C(C1=C(O)[C@@H]3C4CCC(CC4)[C@@H]3N(Cc3cc(Cl)ccc3F)C1=O)N2`, in data set [1], the response was half-maximal at 80 nM (EC50). Besides, the half-life at 1 µM in data set [2] (liver microsomes) was > 60 min. Moreover, the share remaining at 1 h, 1 µM in data set [3] amounted to 100%.

For `CS(=O)(=O)Nc1ccc2c(c1)S(=O)(=O)N=C(C1=C(O)[C@@H]3[C@@H]4CC[C@@H](C4)[C@@H]3N(Cc3nccs3)C1=O)N2`, the EC50 in data set [1] is > 1000 nM. `CS(=O)(=O)Nc1ccc2c(c1)S(=O)(=O)N=C(C1=C(O)[C@@H]3C4CCC(CC4)[C@@H]3N(Cc3ccc(C(F)(F)F)cc3)C1=O)N2` came in with an EC50 in data set [1] of 1100 nM. As to `CS(=O)(=O)Nc1ccc2c(c1)S(=O)(=O)N=C(C1=C(O)[C@@H]3C4CCC(CC4)[C@@H]3N(Cc3cccc(F)c3F)C1=O)N2`, in data set [1], it took 82 nM to reach a half-maximal effect (EC50). Moreover, the half-life at 1 µM in data set [2] (liver microsomes) is > 60 min. Moreover, the fraction remaining at 1 h, 1 µM in data set [3] worked out at 75%. `CS(=O)(=O)Nc1ccc2c(c1)S(=O)(=O)N=C(C1=C(O)[C@@H]3[C@H]4CC[C@H](C4)[C@@H]3N(Cc3ccco3)C1=O)N2` returned an EC50 in data set [1] of 250 nM. As for `CS(=O)(=O)Nc1ccc2c(c1)S(=O)(=O)N=C(C1=C(O)[C@@H]3C4CCC(CC4)[C@@H]3N(Cc3ccco3)C1=O)N2`, the EC50 in data set [1] is 80 nM. For the same compound, in data set [2] (liver microsomes), the half-life at 1 µM was > 60 min. Besides, the share remaining at 1 h, 1 µM in data set [3] is 96%. On the same counts, the results for `CS(=O)(=O)Nc1ccc2c(c1)S(=O)(=O)N=C(C1=C(O)[C@@H]3[C@H]4CC[C@H](C4)[C@@H]3N(Cc3ccccc3F)C1=O)N2` are 70 nM, > 60 min and 89%.

With `CS(=O)(=O)Nc1ccc2c(c1)S(=O)(=O)N=C(C1=C(O)[C@@H]3[C@@H]4CC[C@@H](C4)[C@@H]3N(CC3CCCC3)C1=O)N2`, the EC50 in data set [1] is 160 nM. The compound further returned a half-life at 1 µM in data set [2] (microsomes) of 17 min. In turn, `CS(=O)(=O)Nc1ccc2c(c1)S(=O)(=O)N=C(C1=C(O)[C@@H]3[C@H]4CC[C@H](C4)[C@@H]3N(Cc3cccc(C(F)(F)F)c3)C1=O)N2` showed an EC50 in data set [1] of 820 nM. Same read-out and setting: then `CS(=O)(=O)Nc1ccc2c(c1)S(=O)(=O)N=C(C1=C(O)[C@@H]3[C@@H]4CC[C@@H](C4)[C@@H]3N(Cc3cccc(F)c3F)C1=O)N2`, with 100 nM. Same read-out and setting: then `Cc1ccc(CN2C(=O)C(C3=NS(=O)(=O)c4cc(NS(C)(=O)=O)ccc4N3)=C(O)[C@@H]3[C@@H]4CC[C@@H](C4)[C@@H]32)cc1F`, with 1700 nM; and `CS(=O)(=O)Nc1ccc2c(c1)S(=O)(=O)N=C(C1=C(O)[C@@H]3[C@H]4CC[C@H](C4)[C@@H]3N(Cc3nccs3)C1=O)N2`, with > 1000 nM; and `CS(=O)(=O)Nc1ccc2c(c1)S(=O)(=O)N=C(C1=C(O)[C@@H]3[C@@H]4CC[C@@H](C4)[C@@H]3N(Cc3cc(F)ccc3F)C1=O)N2`, with 260 nM. On the same count and under the same terms, then `CS(=O)(=O)Nc1ccc2c(c1)S(=O)(=O)N=C(C1=C(O)[C@@H]3[C@@H]4CC[C@@H](C4)[C@@H]3N(Cc3ccc(F)cc3Cl)C1=O)N2`, with 140 nM; and `CS(=O)(=O)Nc1ccc2c(c1)S(=O)(=O)N=C(C1=C(O)[C@@H]3[C@@H]4CC[C@@H](C4)[C@@H]3N(Cc3ccc(C(F)(F)F)cc3)C1=O)N2`, with > 3300 nM. As to `CC(C)CCN1C(=O)C(C2=NS(=O)(=O)c3cc(NS(C)(=O)=O)ccc3N2)=C(O)[C@@H]2[C@@H]3CC[C@@H](C3)[C@@H]21`, in data set [1], it took 89 nM to reach a half-maximal effect (EC50). Besides, the half-life at 1 µM in data set [2] (liver microsomes) amounted to 18 min.

In data set [1], `CC(C)(C)CCN1C(=O)C(C2=NS(=O)(=O)c3cc(NS(C)(=O)=O)ccc3N2)=C(O)[C@@H]2[C@@H]3CC[C@@H](C3)[C@@H]21` came in with an EC50 of 50 nM. The compound also yielded a half-life at 1 µM in data set [2] (microsomes) of 3 min. In data set [1], `CS(=O)(=O)Nc1ccc2c(c1)S(=O)(=O)N=C(C1=C(O)[C@@H]3[C@H]4CC[C@H](C4)[C@@H]3N(Cc3cc(Cl)ccc3F)C1=O)N2` had an EC50 of 250 nM. `CS(=O)(=O)Nc1ccc2c(c1)S(=O)(=O)N=C(C1=C(O)[C@@H]3[C@@H]4CC[C@@H](C4)[C@@H]3N(Cc3cccc(C(F)(F)F)c3)C1=O)N2` showed an EC50 in data set [1] of 940 nM.

In data set [1], `CS(=O)(=O)Nc1ccc2c(c1)S(=O)(=O)N=C(C1=C(O)[C@@H]3C4CCC(CC4)[C@@H]3N(Cc3cccc(C(F)(F)F)c3)C1=O)N2` returned a concentration giving a half-maximal response (EC50) of 390 nM.

As to `CS(=O)(=O)Nc1ccc2c(c1)S(=O)(=O)N=C(C1=C(O)[C@@H]3[C@H]4CC[C@H](C4)[C@@H]3N(CC3CCCC3)C1=O)N2`, a half-maximal effect in data set [1] (EC50) was put at 72 nM. This compound also gave a half-life at 1 µM in data set [2] (microsomes) of 46 min. Take `CS(=O)(=O)Nc1ccc2c(c1)S(=O)(=O)N=C(C1=C(O)[C@@H]3[C@@H]4CC[C@@H](C4)[C@@H]3N(Cc3ccccc3Cl)C1=O)N2`: the response in data set [1] was half-maximal at 130 nM (EC50). Still for that read-out and setting: then `CS(=O)(=O)Nc1ccc2c(c1)S(=O)(=O)N=C(C1=C(O)[C@@H]3[C@H]4CC[C@H](C4)[C@@H]3N(Cc3ccc(C(F)(F)F)cc3)C1=O)N2`, with > 3300 nM. Same read-out and setting: then `CS(=O)(=O)Nc1ccc2c(c1)S(=O)(=O)N=C(C1=C(O)[C@@H]3[C@H]4CC[C@H](C4)[C@@H]3N(Cc3cc(F)ccc3F)C1=O)N2`, with 260 nM. Turning to `CS(=O)(=O)Nc1ccc2c(c1)S(=O)(=O)N=C(C1=C(O)[C@@H]3C4CCC(CC4)[C@@H]3N(CC3CCCC3)C1=O)N2`, in data set [1], the EC50 was 24 nM. Besides, in data set [2] (liver microsomes), the half-life at 1 µM came out at 47 min. Take `CS(=O)(=O)Nc1ccc2c(c1)S(=O)(=O)N=C(C1=C(O)[C@@H]3[C@H]4CC[C@H](C4)[C@@H]3N(CC3CCCCC3)C1=O)N2`: the EC50 in data set [1] worked out at 22 nM. The half-life at 1 µM in data set [2] (liver microsomes) was determined as 44 min. Regarding `CS(=O)(=O)Nc1ccc2c(c1)S(=O)(=O)N=C(C1=C(O)[C@@H]3[C@@H]4CC[C@@H](C4)[C@@H]3N(CC3CCCCC3)C1=O)N2`, the response in data set [1] was half-maximal at 63 nM (EC50). Also, the half-life at 1 µM in data set [2] (liver microsomes) was found to be 15 min.

On to `CC(C)CCN1C(=O)C(C2=NS(=O)(=O)c3cc(NS(C)(=O)=O)ccc3N2)=C(O)[C@@H]2C3CCC(CC3)[C@@H]21`, for which the midpoint of the response in data set [1], the EC50, lay at 29 nM. Besides, the half-life at 1 µM in data set [2] (liver microsomes) stood at 59 min. In turn, `CS(=O)(=O)Nc1ccc2c(c1)S(=O)(=O)N=C(C1=C(O)[C@@H]3C4CCC(CC4)[C@@H]3N(Cc3nccs3)C1=O)N2` had an EC50 in data set [1] of 3300 nM. The same measure, in the same setting: then `CS(=O)(=O)Nc1ccc2c(c1)S(=O)(=O)N=C(C1=C(O)[C@@H]3[C@H]4CC[C@H](C4)[C@@H]3N(Cc3cccc(F)c3F)C1=O)N2`, with 130 nM; and `Cc1ccc(CN2C(=O)C(C3=NS(=O)(=O)c4cc(NS(C)(=O)=O)ccc4N3)=C(O)[C@@H]3C4CCC(CC4)[C@@H]32)cc1F`, with 240 nM.

(Values after ChEMBL document CHEMBL1154345, “Discovery of tricyclic 5,6-dihydro-1H-pyridin-2-ones as novel, potent, and orally bioavailable inhibitors of HCV NS5B polymerase” (Bioorg Med Chem Lett, 2009).)
